Results published in patent US20230172203A1, “PLANT METABOLISM PROMOTING COMPOSITIONS AND METHODS OF USE” (Panoptic Ag Solutions LLC, priority 2021, published 2023).

Tests used:
Onions = test: 2021 Pennsylvania Onion Replicated Field Trial; format: in vivo
Description: Onions were maintained under grower standard practices. Four replications were performed per treatment. In this trial, applications of L-theanine were performed every 14 days for a total of 4 applications.

[1] = test system: Wheat (Triticum aestivum); test: 2022 Replicated South Dakota Spring Wheat Field Trial; format: in vivo
Source text: Wheat seed (Triticum aestivum) was planted at a rate of 90 lbs/acre. The treated plot size was 5 ft×40 ft and this was replicated 4 times. A 20% L-theanine solution was applied at 8 fl. oz./acre to the foliage of the wheat approximately 40 days after emergence. The trial was fertilized and maintained under grower standard practices.

[2] = vs untreated check, 4 applications

CCNC(=O)CC[C@H](N)C(=O)O [L-theanine]
Fresh Onion Mass (Onions; applications every 14 days, total of 4 applications): 227 a g | size and uniformity of onions (FIG. 2, in words) (Onions; treated over untreated onions): increase in size and uniformity | increase in biomass of the onions (Onions; [2]): 75.0 g | increase in biomass of the onions, percent (Onions; [2]): 49.3% | Yield ([1]; 20% solution, foliar, 8 fl. oz./acre ~40 days after emergence): 53.9 a Bushels/Acre | increase in yield ([1]; over the untreated control): 5.3 bushels/acre | increase in yield, percent ([1]; over the untreated control): 10.9%
